Experiments:
[1] = test system: glycominimized (GM) E. coli strain; assay: Growth rate and MIC in minimal medium with increasing antibiotic concentrations, GM strain compared to WT strain; assay type: cell-based, Escherichia coli K-12 MG1655
Experimental: Cells were cultured in Greiner Bio-One (Vilvoorde, Belgium) polystyrene F-bottom 96 well plates using the defined medium described above and inoculated 1% from precultures, which were grown in a carbon limiting 2.2 g/L glucose H2O defined medium variant. For the minimum inhibitory concentration (MIC) determination and osmotic stress sensitivity experiments, antibiotics resp. salts were supplemented to the medium in a 100 mL volumetric flask and subsequently filter sterilized using a 0,22 m Corning filter system. Each strain was grown in multiple wells of the 96-well plate as biological replicates. These final 96-well culture plates were then incubated at 30° C. on an orbital shaker at 800 rpm for 72h, or longer
Cell density of the cultures was frequently monitored by measuring optical density at 600 nm (Implen Nanophotometer NP80, Westburg, Belgium) or with a Spark 1OM microplate reader (Tecan, Switzerland).
The minimum inhibitory concentration (MIC) was determined as the lowest concentration of an antibiotic where the growth rate was less or equal than 10% of the growth rate when no antibiotic was added.
In this experiment, the growth rate was measured for both the wildtype and the GM strain when grown in media containing increasing antibiotic concentrations.

[2] = test system: glycominimized (GM) E. coli strain; assay: Osmotic stress sensitivity assay, GM strain compared to WT strain; assay type: cell-based, Escherichia coli K-12 MG1655; details: minimal medium
Experimental: Cells were cultured in Greiner Bio-One (Vilvoorde, Belgium) polystyrene F-bottom 96 well plates using the defined medium described above and inoculated 1% from precultures, which were grown in a carbon limiting 2.2 g/L glucose H2O defined medium variant. For the minimum inhibitory concentration (MIC) determination and osmotic stress sensitivity experiments, antibiotics resp. salts were supplemented to the medium in a 100 mL volumetric flask and subsequently filter sterilized using a […] Corning filter system. Each strain was grown in multiple wells of the 96-well plate as biological replicates. These final 96-well culture plates were then incubated at 30° C. on an orbital shaker at 800 rpm for 72h, or longer
The maximal growth rate (Max) was calculated based on the observed optical densities at 600 nm using the R package grofit.
To test the osmotic stress sensitivity of an E. coli strain, a concentration array of KCl, NaCl and sucrose was applied, and growth of the strain recorded. The growth rate was calculated and plotted in function of the concentration of each solute as well as of the osmotic pressure. The osmotic pressure π is calculated as π=i*C*R*T whereby i is the dimensionless Van't Hoff index, C the concentration of the solute (mol/L), R the ideal gas constant and T the temperature (K). For salts that dissociate in water, the Van't Hoff index is the sum of all ions originating from one molecule.
Since the semi-permeable membrane of the GM strain is severely altered compared to that of the WT strain, the osmotic sensitivity of both strains was compared toward KCl, NaCl and sucrose.

[3] = at 5 g/L concentrations of the salt solutes

CC[C@H]1OC(=O)[C@H](C)[C@@H](O[C@H]2C[C@@](C)(OC)[C@@H](O)[C@H](C)O2)[C@H](C)[C@@H](O[C@@H]2O[C@H](C)C[C@H](N(C)C)[C@H]2O)[C@](C)(O)C[C@@H](C)C(=O)[C@H](C)[C@@H](O)[C@]1(C)O [erythromycin]
minimum inhibitory concentration (MIC), GM strain vs WT strain ([1]; MIC = lowest concentration where growth rate is less or equal than 10% of growth rate without antibiotic, both strains compared): similar | sensitivity of the GM strain to the antibiotic compared to the WT strain (relative specific growth rate, FIG. 1) ([1]; minimal medium, increasing antibiotic concentrations, GM vs WT strain): similarly sensitive

[Cl-].[Na+] [NaCl]
osmotic sensitivity of the GM strain compared to the WT strain (relative specific growth rate, FIG. 2) [2, 3]: equally sensitive

OC[C@H]1O[C@@](CO)(O[C@H]2O[C@H](CO)[C@@H](O)[C@H](O)[C@H]2O)[C@@H](O)[C@@H]1O [sucrose]
osmotic sensitivity of the GM strain compared to the WT strain (relative specific growth rate, FIG. 2) ([2]; up till 64 g/L sucrose): equally sensitive

[Cl-].[K+] [KCl]
osmotic sensitivity of the GM strain compared to the WT strain (relative specific growth rate, FIG. 2) [2, 3]: equally sensitive
